PubChem BioAssay AID276 (DTP/NCI, 2004)
Where “and” joins values, the source holds several entries; their conditions need not be identical. Identical values can stand only once. Inconclusive results and toxic doses are left out. The calls were made as follows: active = survival T/C of 150% or more; inactive = T/C below 125% in these data.

Test system: B6C3F1 mice, Lewis lung carcinoma iv, survival T/C
Assay: NCI In Vivo Anticancer Drug Screen. Data for tumor model Lewis Lung Carcinoma (intravenous) in B6C3F1 mice
Details: endpoint: median survival time, schedule: Q01DX009 (ip), higher = longer survival
Procedure, shortened: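 Tumors were transplanted into mice, which were then dosed with compound or vehicle. Survival was recorded in each group, and the treated figure was divided by the control figure.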

[1] = dose: 3.12 mg/kg/injection, vehicle: saline with Tween-80
[2] = dose: 6.25 mg/kg/injection, vehicle: saline with Tween-80
[3] = dose: 12.5 mg/kg/injection, vehicle: saline with Tween-80
[4] = dose: 25.0 mg/kg/injection, vehicle: saline with Tween-80
[5] = dose: 50.0 mg/kg/injection, vehicle: saline with Tween-80
[6] = dose: 5.0 mg/kg/injection, vehicle: saline with Tween-80
[7] = dose: 10.0 mg/kg/injection, vehicle: saline with Tween-80
[8] = dose: 1.56 mg/kg/injection, vehicle: saline
[9] = dose: 3.12 mg/kg/injection, vehicle: saline
[10] = dose: 6.25 mg/kg/injection, vehicle: saline
[11] = dose: 12.5 mg/kg/injection, vehicle: saline
[12] = dose: 25.0 mg/kg/injection, vehicle: saline
[13] = dose: 50.0 mg/kg/injection, vehicle: saline
[14] = dose: 100.0 mg/kg/injection, vehicle: saline
[15] = dose: 400.0 mg/kg/injection, vehicle: saline
[16] = dose: 100.0 mg/kg/injection, vehicle: saline with Tween-80
[17] = dose: 200.0 mg/kg/injection, vehicle: saline with Tween-80
[18] = dose: 12.5 mg/kg/injection, vehicle: Klucel (hydroxypropylcellulose) (HPC)
[19] = dose: 25.0 mg/kg/injection, vehicle: Klucel (hydroxypropylcellulose) (HPC)
[20] = dose: 50.0 mg/kg/injection, vehicle: Klucel (hydroxypropylcellulose) (HPC)
[21] = dose: 100.0 mg/kg/injection, vehicle: Klucel (hydroxypropylcellulose) (HPC)

Measured: T/C

CNC(=O)Oc1ccc[nH]c1=O
inactive: dose: 16.0 mg/kg/injection, vehicle: saline with Tween-80 101 % of control | dose: 32.0 mg/kg/injection, vehicle: saline with Tween-80 103 % of control | dose: 64.0 mg/kg/injection, vehicle: saline with Tween-80 104 % of control | dose: 128.0 mg/kg/injection, vehicle: saline with Tween-80 90 % of control | dose: 256.0 mg/kg/injection, vehicle: saline with Tween-80 94 % of control

CCCCCCCCCCCCCC#CC(=O)O
inactive: [1] 97 % of control | [2] 93 % of control | [3] 101 % of control | [4] 89 % of control | [5] 93 % of control

C1CN1c1nc(N2CC2)nc(N2CC2)n1
inactive: dose: 0.06 mg/kg/injection, vehicle: suspension in saline 96 % of control | dose: 0.12 mg/kg/injection, vehicle: suspension in saline 92 % of control | dose: 0.25 mg/kg/injection, vehicle: suspension in saline 101 % of control | dose: 0.5 mg/kg/injection, vehicle: suspension in saline 106 % of control | dose: 1.0 mg/kg/injection, vehicle: suspension in saline 121 % of control

COc1cc2c3c(cccc3c1)C(=O)N(CCN(C)C)C2=O
inactive: [6] 101 % of control | [7] 110 % of control | dose: 20.0 mg/kg/injection, vehicle: saline with Tween-80 122 % of control | dose: 40.0 mg/kg/injection, vehicle: saline with Tween-80 101 % of control | dose: 80.0 mg/kg/injection, vehicle: saline with Tween-80 119 % of control

O=C(O)C(CSC(c1ccccc1)(c1ccccc1)c1ccccc1)N=Cc1cccs1 (centres undefined)
inactive: dose: 12.5 mg/kg/injection, vehicle: suspension in saline 104 % of control | dose: 25.0 mg/kg/injection, vehicle: suspension in saline 100 % of control | dose: 50.0 mg/kg/injection, vehicle: suspension in saline 105 % of control

OCCN1CCN(CC/C=C2/c3ccccc3Sc3ccc(C(F)(F)F)cc32)CC1
inactive: dose: 0.19 mg/kg/injection, vehicle: saline 114 % of control | dose: 0.39 mg/kg/injection, vehicle: saline 101 % of control | dose: 0.78 mg/kg/injection, vehicle: saline 102 % of control | [8] 98 % of control | [9] 98 % of control | [10] 108 % of control

Cc1nnc2ncccn12
inactive: [11] 104 % of control | [12] 110 % of control | [13] 101 % of control | [14] 96 % of control | [15] 103 % of control

CC(=O)OCC1(C)NC(=O)c2ccccc2O1 (centres undefined)
inactive: [3] 114 % of control | [4] 96 % of control | [5] 100 % of control | [16] 104 % of control | [17] 114 % of control | dose: 400.0 mg/kg/injection, vehicle: saline with Tween-80 100 % of control

NC1(C(=O)O)CCCC1
inactive: [12] 102 % of control | [13] 109 % of control and 111 % of control and 120 % of control | [14] 121 % of control

Cc1ccc(N)c(N)c1
inactive: [4] 96 % of control | [5] 98 % of control | [16] 108 % of control | [17] 103 % of control

C[C@]12C=CC(=O)C=C1CC[C@@H]1[C@@H]2C(=O)C[C@@]2(C)[C@H]1CC[C@]2(O)C(=O)CO
inactive: dose: 12.5 mg/kg/injection, vehicle: water 100 % of control | dose: 25.0 mg/kg/injection, vehicle: water 100 % of control | dose: 50.0 mg/kg/injection, vehicle: water 96 % of control | dose: 100.0 mg/kg/injection, vehicle: water 98 % of control | dose: 200.0 mg/kg/injection, vehicle: water 94 % of control

O=C(O)CSc1c(Cl)c(=O)oc2ccc(Cl)cc12
inactive: dose: 6.25 mg/kg/injection, vehicle: Klucel (hydroxypropylcellulose) (HPC) 93 % of control | [18] 93 % of control | [19] 94 % of control | [20] 98 % of control | [21] 98 % of control

Cc1c2cc[n+](CCN3CCCCC3)cc2c(C)c2c1[nH]c1ccc(O)cc12
inactive: [8] 94 % of control | [9] 116 % of control | [10] 106 % of control | [11] 103 % of control | [12] 104 % of control

C=Cc1cnc([N+](=O)[O-])n1C
inactive: [18] 94 % of control | [19] 90 % of control | [20] 99 % of control | [21] 92 % of control | dose: 200.0 mg/kg/injection, vehicle: Klucel (hydroxypropylcellulose) (HPC) 92 % of control

OCCCN1CCCCC1CO (centres undefined)
inactive: [15] 96 % of control | dose: 800.0 mg/kg/injection, vehicle: saline 97 % of control

Nc1nnc[se]1
inactive: [1] 122 % of control | [2] 123 % of control | [3] 123 % of control

C[n+]1cccc(NC(=O)c2ccc(NC(=O)C34CCC(C(=O)Nc5ccc(C(=O)Nc6ccc[n+](C)c6)cc5)(CC3)CC4)cc2)c1
inactive: [6] 106 % of control | [7] 122 % of control

c1ccc2sc(SSN3CC4CCC(CC4)C3)nc2c1
inactive: [3] 100 % of control | [4] 93 % of control | [5] 90 % of control | [16] 91 % of control | [17] 106 % of control
